This is an account of results in patent US5578643A, “Protective prostaglandins for use in conjunction with chemotherapeutic agents” (Loyola University of Chicago, priority 1994, dated 1996).

Data set [1] relates to mice given graded doses of doxorubicin (DOX). Nature of the data set: DOX dose response: dose killing 50% of the mice within 15 days, alone or after PG or WR-2721. It is filed as in vivo. The note with it: for effect on DOX dose necessary to kill 50% of mice: 10 μg of 16,16-dimethyl PGE2 or 25 μg of SC-44932, 2 hours before graded doses of doxorubicin, n=8, FIG. 6. How it is done: The open triangle is data of a group of 10 mice given WR-2721, 30 minutes before administration of 0.75 mg of doxorubicin. (The lines are computer fit spline curves through the data; n=24 per data point on each curve).
(The lines are computer fit spline curves through the data; n=8 per data point for each of the PG-treated groups and n=24 for the data points of mice treated only with doxorubicin).
It was observed that all acute deaths due to DOX treatment alone occurred before day 15 following DOX administration. Subsequently, the parameter of death within 15 days was used to investigate the DOX dose response administered IP alone or 2 hours after 40 μg of misoprostol was given subcutaneously (sc). In this study, a dose of about 0.5 mg of DOX/average 30 gram mouse, killed 50% of the DOX treated mice (see FIG. 5).
A comparison of PG-induced protection was made to that of protection by WR-2721; an agent reported to protect from some chemotherapeutic agents. […] Two other PGs representing different structural prostaglandins than misoprostol were also investigated for their effectiveness in protecting mice from mortality resulting from administration of graded doses of DOX.

Data set [2] deals with hair medullary cells. Nature of the data set: Number of hair medullary cells four days after a single dose of chemotherapeutic agent, with or without misoprostol. It is filed as in vivo, CF1 mice. The following applies: 4 days after single IP dose: DOX 0.3, CTX 1, VP-16-213 0.3, ARA-C 8, HU 10, 5 FU 1.0, Methotrexate 0.2, Bleomycin 0.05, Mitomycin C 0.01, Cisplatin 0.25, Carboplatin 1.0, Taxol 0.6 mg; untreated control 51.4 ± 0.6. As to the method:
FIG. 13 is a representation of photographs of shafts of hair showing a single line of medullary cells in control mice (Panel A) and in mice 4 days after they were given a single dose of 0.3 mg of VP-16-213 (Panel B).
Number of Hair Medullary Cells as a Measure of Protection from Injury caused by Chemotherapeutic Agents.
The shafts of hair in CF1 mice contain usually a single line of about 50±1 medullary cells. These cells are very sensitive to cytotoxic agents (see Potten, C. S., Geng, L., and Taylor, P., Hair Medullary Cell Counts: a Simple and Sensitive Indicator of Radiation Exposure. Int. J Radiat. Biol., 57:13-21, 1990). Single doses of cytotoxic chemotherapeutic agents greatly reduce the number of medullary cells which reach a nadir at 4 days after administration of the agent. This cell system has been used for the evaluation of misoprostol-induced protection from several chemotherapeutic agents.
CF1 mice had hair from an area of their rump plucked to induce anagen growth as described in Example 2 above. […] In separate groups, mice received misoprostol (40 μg/average 30 g mouse) either subcutaneously or applied topically 2 hours before each of the chemotherapeutic agents listed above. Untreated controls were used since it has been previously determined that water, or 2% EtOH in water, or phosphate buffer at pH=6.8 (the vehicles for the all agents used) had no influence on the cell counts compared to untreated controls. Twenty-five hairs from each animal of each group were dissected from Feulgen stained samples taken from the mice 4 days after treatment.
The number of medullary cells was averaged (n=4) for each treatment group and the results for all chemotherapeutic agents tested to date are presented in Table I.

Data set [3] in a line: Survival of mice (percent survival over 15 days) after doxorubicin, with or without prior prostaglandin. The note with it: mouse, in vivo, ip, 0.5 mg. As to the method: (§1) FIG. 1 is a graph illustrating percent survival of mice over 15 days as a function of the time interval (in hours) between the administration of misoprostol and the subsequent administration of doxorubicin. (The two curves represent duplicate experiments; 12 animals per experiment.)
(§2) FIG. 2 is a graph illustrating the percent survival of mice over 15 days following the administration of 0.5 mg of doxorubicin (open circles) and mice given 40 μg of misoprostol 2 hours before administration of 0.5 mg of doxorubicin (filled circles). (N=16 for each group).
(§3) FIG. 3 is a graph illustrating the percent survival of mice over 15 days following the administration of 0.75 mg of doxorubicin (open circles) and mice given 40 μg of misoprostol 2 hours before administration of 0.75 mg of doxorubicin (filled circles). (N=16 for each group).
(§4) Mortality of mice is a measure of PG-induced protection from death due to severe normal tissue injury inflicted by chemotherapy agents.
(§5) This assay was accomplished by injecting intraperitoneally (IP) separate groups of mice with a range of doses of chemotherapeutic agents. […] In some groups of mice, longevity was recorded by plotting the number of animals remaining alive (percent survival) versus time following the administration of the chemotherapeutic agent.
(§6) PG-induced protection from the toxic chemotherapeutic agents was measured by subcutaneous (SC) injection of the PG at various times prior to or after the IP administration of the chemotherapeutic agent. […] The time interval was varied from 15 minutes to 5 hours. The two curves represent two separate experiments with 20 mice in each experiment. The "0" time point is the percentage of mice that survived 15 days after administration of doxorubicin alone.

Data set [4] concerns mice given doxorubicin (DOX). The description is as above. The following applies: 0.75 mg of DOX IP alone; n=16; FIG. 3. How it is done: as §1, §2, §3, §4, §5, §6
The test system of data set [5] is white blood cells (WBCs) in the peripheral circulation. Nature of the data set: WBC counts and differential counts in peripheral blood of DOX treated mice. It is filed as in vivo. As to the method:
FIG. 7 is a graph illustrating the protective effect of misoprostol (given 2 hours before doxorubicin) on WBC counts compared to the effect of doxorubicin alone on WBC counts as function of time (in days). (The numbers 1 and 2 are duplicate studies.)
Death within 15 days of DOX treatment alone is most likely associated with bone marrow injury. […] DOX, therefore, appears to not only reduce the total WBC, but has a particularly marked effect on lymphocytes.

Data set [6] deals with hair follicles. As to the kind of experiment: Hair count / hair loss (alopecia) caused by chemotherapeutic agents, 5 daily treatments. It is filed as in vivo, mice. The note with it: 0.1 mg DOX daily for 5 days IP; controls 248±5; FIG. 9. As to the method: Panel C is a representation of a photomicrograph of an animal given 40 μg of misoprostol, 2 hours before the 0.1 mg daily dose of doxorubicin given each day for 5 days.
(Data are the means of 6 mice (2 fields/mouse)±1 SEM.)
Amount of Hair Loss as a Measure of PG-induced Protection from Alopecia caused by Chemotherapeutic Agents.
One of the side effects of chemotherapy in cancer patients is hair loss or alopecia. Studies were conducted to measure a possible protective effect of PGs from alopecia caused by chemotherapeutic agents. […] The hairs on the rumps of mice (n=4/group) were plucked to induce a growth or anagen cycle within hair follicles which continues for about 18 days. […] Control groups (n=4) received no treatment or misoprostol alone.

Data set [7] concerns skin (hair follicles). As to the kind of experiment: Hair count after a single dose of doxorubicin, with or without PGE1. Format: in vivo, mice. The note with it: FIG. 11. How it is done: FIG. 11 is a graph illustrating the number of hairs per 4.16 sq. mm of skin area in control mice, in mice that received 0.5 mg of doxorubicin or in mice that received 10 μg of PGE1 2 hours before receiving 0.5 mg of doxorubicin. (Data are the means of 6 mice (2 field/mouse)±SEM.)
(§7) The hair counts from skin fields of control (open bar), DOX (striped bar) and misoprostol+DOX (filled bar) treated mice are shown in FIG. 9. […] Misoprostol given before DOX increased the hair count to 213±7.8. […] Since prostaglandin receptors are not evenly distributed, protection may not be evenly distributed. PGE1 is associated with the skin (hair follicles) but not with the gut. The ability of PGE1 to protect the skin (hair follicles) and the small intestine from cell injury caused by doxorubicin was tested. […] A single dose of 0.5 mg of doxorubicin reduced this count to 43±8. Administration of 10 μg of PGE1 prior to administration of doxorubicin provided protection as indicated by the increase in the number of hairs to 111±12. […] More evidence is presented in Example 3.

For data set [8], the system named is small intestine. As to the kind of experiment: Intestinal microcolonies in DOX treated mice, with or without PGE1. The following applies: FIG. 12. It is filed as in vivo.
Text: (Data are the means of 4 mice±1 SEM.)
as §7

For data set [9], the system named is kidney. The following applies: bolus infusions of cisplatin; Glover et al.; cited from earlier work.
For data set [10], the system named is humans. The note with it: WR-2721 in large protective doses; cited from earlier work.

For `C/C=C/C=C/[C@](C)(O)C/C=C/C1C(O)CC(=O)C1CC/C=C\CCC(=O)OC` (mixture of isomers) [SC-44932, (±) methyl, 7-[3α-hydroxy-2β-(4R-hydroxy-4-methyl-1E, 5E,7E-nonatrienyl)-5-oxo-1α-cyclopentyl]-4-Z-heptenoate], the “effect on DOX dose necessary to kill 50% of mice” value in data set [1] is listed as “increased the DOX dose necessary to kill 50% of a population (n=8) of mice”.

Regarding `CCCCC(C)(C)[C@H](O)/C=C/[C@H]1[C@H](O)CC(=O)[C@@H]1C/C=C\CCCC(=O)O` [16,16-dimethyl PGE2, 16,16-dimethyl prostaglandin E2], the “effect on DOX dose necessary to kill 50% of mice” value in data set [1] is “increased the DOX dose necessary to kill 50% of a population (n=8) of mice”.

Turning to `O=P1(N(CCCl)CCCl)NCCCO1` (stereo not drawn) [CTX, cytoxan], in [2], the “Number of Medullar Cells ± 1 SEM, chemotherapeutic agent IP alone” value (from here on “Number of Medullar Cells ± 1 SEM”) is reported as 22.1 ± 1.9.

For the molecule `N.N.O=C([O-])C1(C(=O)[O-])CCC1.[Pt+2]` [Carboplatin, carboplatin], in data set [2], the “Number of Medullar Cells ± 1 SEM” value was 37.8 ± 2.4.

As to `N.N.[Cl][Pt][Cl]` [Cisplatin, cisplatin], the “Number of Medullar Cells ± 1 SEM” value in data set [2] came to 25.9 ± 1.5.

With `COc1cccc2c1C(=O)c1c(O)c3c(c(O)c1C2=O)C[C@@](O)(C(=O)CO)C[C@@H]3O[C@H]1C[C@H](N)[C@H](O)[C@H](C)O1` [DOX, doxorubicin], the survival at 360 h in data set [3] is about 25%. The “mortality, DOX alone” value in [4] is given as “All of the mice were dead by six days”. Further, the “dose of DOX that killed 50% of the mice, DOX alone” value in data set [1] (IP, death within 15 days, FIG. 5) was “about 0.5 mg of DOX/average 30 gram mouse”. In data set [1] (following DOX administration), the “time of all acute deaths due to DOX treatment alone (before day)” value is under 15 days. The “WBCs in the peripheral circulation, DOX alone” value in data set [5] (0.5 mg DOX/30 gram mouse, FIG. 7) was “sharply reduced over 7 days following treatment”. The “percentage of lymphocytes, DOX alone” value in data set [5] (0.5 mg of DOX, differential counts, control mice about 85%) was “less than 10%”. Moreover, the “number of hairs, DOX alone” value in [6] amounted to 144±3 hairs per 4.42 sq. mm. The “number of hairs, doxorubicin alone” value in data set [7] (single dose of 0.5 mg doxorubicin, control 237±5) stood at 43±8 hairs per 4.16 sq. mm. Also, the “number of intestinal colonies per circumference, DOX alone” value in data set [8] (0.5 mg of doxorubicin) is given as 6±0.3 intestinal colonies per circumference. Besides, the “Number of Medullar Cells ± 1 SEM” value in data set [2] was 18.3 ± 1.7.

As to `CCCCC[C@H](O)/C=C/[C@H]1[C@H](O)CC(=O)[C@@H]1CCCCCCC(=O)O` [PGE1], the “number of hairs, PGE1 + doxorubicin” value in data set [7] (10 μg of PGE1 2 hours before 0.5 mg doxorubicin) amounted to 111±12 hairs per 4.16 sq. mm. Further, the “number of intestinal colonies per circumference, PGE1 + DOX” value in [8] (10 μg of PGE1 (b62 prints .rho.g) 2 hours before 0.5 mg doxorubicin) is given as “did not change”.

Consider `NCCCNCCSP(=O)(O)O` [WR-2721, S-2-(3-aminopropylamino) ethylphosphorothioxic acid], for which the “protection of mice from DOX by WR-2721” value in data set [1] (WR-2721 30 minutes before 0.75 mg of doxorubicin, n=10, FIG. 5) is “did not protect mice (n=10) from DOX treatment”. For the same molecule, in [9], the “kidney protection from cisplatin injury” value is recorded as “protect the kidney from injury caused by bolus infusions of cisplatin”. In addition, the “side effects in humans” value in [10] was “causes hypotension, nausea, and vomiting in humans”.

Consider bleomycin, for which the “Number of Medullar Cells ± 1 SEM” value in data set [2] came out at 30.4 ± 1.4.
